The results in this text go back to patent US12492188B2, “1H-benzo[D]imidazole derivatives as TLR9 inhibitors for the treatment of fibrosis” (BRISTOL-MYERS SQUIBB COMPANY, priority 2020, dated 2025).

The target in this test is T1, human TLR9 (Homo sapiens, UniProt Q9NR96).
T1 construct: host or cells: HEK-Blue cells (HEK293-derived reporter line)
T1 sequence (Q9NR96 26-1032): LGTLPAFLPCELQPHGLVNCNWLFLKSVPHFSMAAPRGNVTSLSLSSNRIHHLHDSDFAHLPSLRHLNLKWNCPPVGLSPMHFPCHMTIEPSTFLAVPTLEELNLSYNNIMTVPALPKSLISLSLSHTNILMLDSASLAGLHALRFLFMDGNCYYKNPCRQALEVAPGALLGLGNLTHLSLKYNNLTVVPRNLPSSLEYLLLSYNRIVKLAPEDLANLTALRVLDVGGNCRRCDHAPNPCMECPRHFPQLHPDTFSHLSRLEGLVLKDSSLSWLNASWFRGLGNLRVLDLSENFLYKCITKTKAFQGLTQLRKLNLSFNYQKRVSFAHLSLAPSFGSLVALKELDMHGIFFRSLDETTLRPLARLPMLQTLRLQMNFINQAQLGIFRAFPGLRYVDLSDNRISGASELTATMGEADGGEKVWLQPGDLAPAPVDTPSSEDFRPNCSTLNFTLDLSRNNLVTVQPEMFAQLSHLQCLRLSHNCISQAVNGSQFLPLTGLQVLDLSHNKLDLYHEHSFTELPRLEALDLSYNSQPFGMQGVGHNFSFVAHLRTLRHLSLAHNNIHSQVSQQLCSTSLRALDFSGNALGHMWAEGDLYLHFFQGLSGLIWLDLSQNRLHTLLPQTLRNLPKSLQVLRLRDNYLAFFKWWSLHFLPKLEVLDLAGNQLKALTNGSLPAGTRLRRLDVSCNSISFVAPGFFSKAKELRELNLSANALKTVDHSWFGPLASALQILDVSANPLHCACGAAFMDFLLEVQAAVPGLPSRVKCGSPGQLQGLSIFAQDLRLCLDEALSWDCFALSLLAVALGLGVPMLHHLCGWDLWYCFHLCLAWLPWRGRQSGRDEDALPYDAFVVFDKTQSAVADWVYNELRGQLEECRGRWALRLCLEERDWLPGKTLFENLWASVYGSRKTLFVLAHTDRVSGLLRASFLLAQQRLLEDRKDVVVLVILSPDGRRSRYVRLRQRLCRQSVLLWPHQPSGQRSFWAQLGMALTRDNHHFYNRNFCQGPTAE
Briefly: TLR9 inhibition reporter assay (HEK-Blue cells, secreted embryonic alkaline phosphatase reporter). Format: cell-based. Put shortly:
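Read-out is SEAP colour from HEK-Blue Detection medium after 22 h at 37 °C, converted to percent inhibition between agonist-plus-DMSO and reference-inhibitor wells. Receptor-overexpressing HEK-Blue cells received compound over 0.05 nM–50 μM for 30 min before agonist: gardiquimod 7.5 μM for TLR7, R848 15.9 μM for TLR8, ODN2006 5 nM for TLR9.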
Background: A reporter such as luciferase makes a cellular process visible.

Setting [1] is: HEK-Blue cells overexpressing human TLR9, stimulated with ODN2006 5 nM, read-out: TLR 9 IC50.
The mark [2] stands for this setting: HEK-Blue human TLR9 reporter cells.
Setting [3] is: HEK-Blue cells overexpressing human TLR9, stimulated with ODN2006 5 nM, 22 hour incubation, reporter readout.

Like-named read-outs stand apart in the source and are kept apart here.

Usually IC50 stands for the concentration needed to halve the response being measured. Take `Cc1cc2nc(-c3ccc(S(C)(=O)=O)cc3)n(C)c2cc1C1CCN(C2CCN(CC(C)C)CC2)CC1` [Example 331, 6-(1′-isobutyl-[1,4′-bipiperidin]-4-yl)-1,5-dimethyl-2-(4-(methylsulfonyl)phenyl)-1H-benzo[d]imidazole]: the IC50 reads like this: under setting [1], 143 nM; under setting [2], 140 nM. Regarding `Cc1cc(C2CCN(C3CC4CCC(C3)N4CC3CC3)CC2)cc2c1nc(-c1ccc(S(C)(=O)=O)c(F)c1)n2C` (centres unmarked) [Example 340, 6-(1-(8-(cyclopropylmethyl)-8-azabicyclo[3.2.1]octan-3-yl)piperidin-4-yl)-2-(3-fluoro-4-(methylsulfonyl)phenyl)-1,4-dimethyl-1H-benzo[d]imidazole], the IC50 runs as follows: under setting [1], 84 nM; under setting [2], 84 nM.

For the molecule `Cc1cc(C2CCN(C3CC4CCC(C3)N4C3CC3)CC2)cc2c1nc(-c1ccc(S(C)(=O)=O)c(F)c1)n2C` (centres unmarked) [Example 345, 6-(1-(8-cyclopropyl-8-azabicyclo[3.2.1]octan-3-yl)piperidin-4-yl)-2-(3-fluoro-4-(methylsulfonyl)phenyl)-1,4-dimethyl-1H-benzo[d]imidazole], the half-maximal inhibitory concentration (IC50) by setting is: under setting [1], 132 nM; under setting [2], 130 nM. As for `Cc1cc(C2CCN(C3CC4CCC(C3)N4C3CC3)CC2)cc2[nH]c(-c3ccc(S(C)(=O)=O)c(F)c3)nc12` (centres unmarked) [Example 347, 6-(1-(8-cyclopropyl-8-azabicyclo[3.2.1]octan-3-yl)piperidin-4-yl)-2-(3-fluoro-4-(methylsulfonyl)phenyl)-4-methyl-1H-benzo[d]imidazole], the IC50 by setting is: under setting [1], 44 nM; under setting [2], 44 nM.

As to `Cc1cc(C2CCN(C3CC4CCC(C3)N4C(C)C)CC2)cc2[nH]c(-c3ccc(S(C)(=O)=O)c(F)c3)nc12` (centres unmarked) [Example 348, 2-(3-fluoro-4-(methylsulfonyl)phenyl)-6-(1-(8-isopropyl-8-azabicyclo[3.2.1]octan-3-yl)piperidin-4-yl)-4-methyl-1H-benzo[d]imidazole], the IC50 turned out to be 180 nM under setting [1] and 180 nM under setting [2]. As for `Cc1cc(C2CCN(C3CC4CCC(C3)N4C3CCC3)CC2)cc2[nH]c(-c3ccc(S(C)(=O)=O)c(F)c3)nc12` (centres unmarked) [Example 349, 6-(1-(8-cyclobutyl-8-azabicyclo[3.2.1]octan-3-yl)piperidin-4-yl)-2-(3-fluoro-4-(methylsulfonyl)phenyl)-4-methyl-1H-benzo[d]imidazole], the IC50 under setting [1] came out at 24 nM and the half-inhibitory concentration (IC50) under setting [2] stood at 24 nM. In the case of `Cc1cc(C2CCN(C3CC4CCC(C3)N4C3CCC3)CC2)cc2[nH]c(-c3ccc(S(C)(=O)=O)c(F)c3)nc12` (centres unmarked) [Example 350, 6-(1-(8-cyclobutyl-8-azabicyclo[3.2.1]octan-3-yl)piperidin-4-yl)-2-(3-fluoro-4-(methylsulfonyl)phenyl)-4-methyl-1H-benzo[d]imidazole], the IC50 under setting [1] came out at 55 nM and inhibition under setting [2] was half-maximal at 55 nM (IC50). Take `Cc1cc(C2CCN(C3CC4CCC(C3)N4CC3CC3)CC2)cc2[nH]c(-c3ccc(S(C)(=O)=O)c(F)c3)nc12` (centres unmarked) [Example 351, 6-(1-(8-(cyclopropylmethyl)-8-azabicyclo[3.2.1]octan-3-yl)piperidin-4-yl)-2-(3-fluoro-4-(methylsulfonyl)phenyl)-4-methyl-1H-benzo[d]imidazole]: the IC50 by setting is: under setting [1], 48 nM; under setting [2], 48 nM. `Cc1cc(C2CCN(C3CC4CCC(C3)N4CC3CC3)CC2)cc2[nH]c(-c3ccc(S(C)(=O)=O)c(F)c3)nc12` (centres unmarked) [Example 352, 6-(1-(8-(cyclopropylmethyl)-8-azabicyclo[3.2.1]octan-3-yl)piperidin-4-yl)-2-(3-fluoro-4-(methylsulfonyl)phenyl)-4-methyl-1H-benzo[d]imidazole]: the half-maximal inhibitory concentration (IC50) was 26 nM under setting [1] and 26 nM under setting [2]. As to `COc1cc(-c2nc3c(C)cc(C4CCN(C5CC6CCC(C5)N6C5CCC5)CC4)cc3[nH]2)cn2ncnc12` (centres unmarked) [Example 361, 6-(6-(1-(8-cyclobutyl-8-azabicyclo[3.2.1]octan-3-yl)piperidin-4-yl)-4-methyl-1H-benzo[d]imidazol-2-yl)-8-methoxy-[1,2,4]triazolo[1,5-a]pyridine], the IC50 under setting [1] turned out to be 20 nM and 21 nM corresponded to half-maximal inhibition under setting [2] (IC50). Taken in the same sequence, the figures for `COc1cc(-c2nc3c(C)cc(C4CCN(C5CC6CCC(C5)N6C(C)C)CC4)cc3[nH]2)cn2ncnc12` (centres unmarked) [Example 362, 6-(6-(1-(8-isopropyl-8-azabicyclo[3.2.1]octan-3-yl)piperidin-4-yl)-4-methyl-1H-benzo[d]imidazol-2-yl)-8-methoxy-[1,2,4]triazolo[1,5-a]pyridine] were 152 nM and 150 nM. For `Cc1cc(-c2ccc(CCN3CCC(C)(O)CC3)cc2)cc2c1nc(-c1ccc(S(C)(=O)=O)cc1)n2C` [Example 366, 1-(4-(1,4-dimethyl-2-(4-(methylsulfonyl)phenyl)-1H-benzo[d]imidazol-6-yl)phenethyl)-4-methylpiperidin-4-ol], the half-maximal inhibitory concentration (IC50) is, setting by setting: under setting [3], 450 nM; under setting [1], 446 nM.

In the case of `CN(C)C1CCN(Cc2ccc(-c3ccc4nc(-c5cc(F)cc(F)c5)n(C)c4c3)cc2)CC1` [Example 381, 1-(4-(2-(3,5-difluorophenyl)-1-methyl-1H-benzo[d]imidazol-6-yl)benzyl)-N,N-dimethylpiperidin-4-amine], the IC50 reads like this: under setting [3], 140 nM; under setting [1], 140 nM. As for `CN(C)C1CCN(Cc2ccc(-c3ccc4nc(-c5ccc(F)c(F)c5)n(C)c4c3)cc2)CC1` [Example 382, 1-(4-(2-(3,4-difluorophenyl)-1-methyl-1H-benzo[d]imidazol-6-yl)benzyl)-N,N-dimethylpiperidin-4-amine], the IC50 runs as follows: under setting [3], 3.2 nM; under setting [1], 3240 nM. Consider `CN(C)C1CCN(Cc2ccc(-c3ccc4nc(-c5cccc(S(C)(=O)=O)c5)n(C)c4c3)cc2)CC1` [Example 384, N,N-dimethyl-1-(4-(1-methyl-2-(3-(methylsulfonyl)phenyl)-1H-benzo[d]imidazol-6-yl)benzyl)piperidin-4-amine], for which the IC50 reads like this: under setting [3], 41 nM; under setting [1], 41000 nM. Taken in the same sequence, the figures for `CC(C)N1CC2(CN(Cc3ccc(-c4cc(F)c5nc(-c6ccc(S(C)(=O)=O)cc6)n(C6CC6)c5c4)cc3)C2)C1` [Example 410, 1-cyclopropyl-4-fluoro-6-(4-((6-isopropyl-2,6-diazaspiro[3.3]heptan-2-yl)methyl)phenyl)-2-(4-(methylsulfonyl)phenyl)-1H-benzo[d]imidazole] were 44 nM and 44 nM. Taken in the same sequence, the figures for `CC(C)CN1CC2(CN(Cc3ccc(-c4cc(F)c5nc(-c6ccc(S(C)(=O)=O)cc6)n(C6CC6)c5c4)cc3)C2)C1` [Example 411, 1-cyclopropyl-4-fluoro-6-(4-((6-isobutyl-2,6-diazaspiro[3.3]heptan-2-yl)methyl)phenyl)-2-(4-(methylsulfonyl)phenyl)-1H-benzo[d]imidazole] were 0.85 nM and 0.9 nM.

Turning to `CS(=O)(=O)c1ccc(-c2nc3c(F)cc(-c4ccc(CN5CC6(C5)CN(C5CCOCC5)C6)cc4)cc3n2C2CC2)cc1` [Example 412, 1-cyclopropyl-4-fluoro-2-(4-(methylsulfonyl)phenyl)-6-(4-((6-(tetrahydro-2H-pyran-4-yl)-2,6-diazaspiro[3.3]heptan-2-yl)methyl)phenyl)-1H-benzo[d]imidazole], the half-maximal inhibitory concentration (IC50) is, setting by setting: under setting [3], 77 nM; under setting [1], 77 nM. Molecule `Cc1cc(-c2ccc(CN3CCN(CC(C)C)CC3)cc2)cc2c1nc(-c1ccc(S(C)(=O)=O)cc1)n2C` [Example 414, 6-(4-((4-isobutylpiperazin-1-yl)methyl)phenyl)-1,4-dimethyl-2-(4-(methylsulfonyl)phenyl)-1H-benzo[d]imidazole] returned an IC50 under setting [3] of 1800 nM. In the case of `CC(C)CN1CCC(N2CCC(c3ccc4nc(-c5ccc(S(C)(=O)=O)cc5)n(C5CC5)c4c3F)CC2)CC1` [Example 415, 1-cyclopropyl-7-fluoro-6-(1′-isobutyl-[1,4′-bipiperidin]-4-yl)-2-(4-(methylsulfonyl)phenyl)-1H-benzo[d]imidazole], the IC50 reads like this: under setting [3], 65 nM; under setting [1], 65 nM. For `Cc1cc(-c2ccc(OC3CCN(C(C)C)CC3)cc2)cc2c1nc(-c1ccc(S(C)(=O)=O)cc1)n2C` [Example 416, 6-(4-((1-isopropylpiperidin-4-yl)oxy)phenyl)-1,4-dimethyl-2-(4-(methylsulfonyl)phenyl)-1H-benzo[d]imidazole], the midpoint of inhibition under setting [3], the IC50, lay at 1200 nM and the IC50 under setting [1] stood at 1190 nM.
